Laboratory results: ChEMBL document CHEMBL5058564, “EUbOPEN Chemogenomics Library 2 (Incucyte)” (2022)

Assays:
Format in all cases: toxicity, cell-based
HEK-293T = assay: Incucyte cell viability with HEK293T; settings: human, 10 µM, compound concentration 10 uM
Fibroblast = assay: Incucyte cell viability with human fibroblast; settings: 10 µM, compound concentration 10 uM
U2OS = assay: Incucyte cell viability with U2OS; settings: human, 10 µM, compound concentration 10 uM
[1] = 0 h, replicate number 1, timepoint 0 hours
[2] = 0 h, replicate number 2, timepoint 0 hours
[3] = 12 h, replicate number 2, timepoint 12 hours
[4] = 6 h, replicate number 2, timepoint 6 hours
[5] = 18 h, replicate number 1, timepoint 18 hours
[6] = 24 h, replicate number 2, timepoint 24 hours
[7] = 24 h, replicate number 1, timepoint 24 hours
[8] = 6 h, replicate number 1, timepoint 6 hours
[9] = 12 h, replicate number 1, timepoint 12 hours
[10] = 18 h, replicate number 2, timepoint 18 hours
Also: unitless GR value; below 1 slowed growth and below 0 cell loss.

| Structure (SMILES) | Growth Rate (HEK-293T; [1]) | Growth Rate (HEK-293T; [2]) | Growth Rate (HEK-293T; [3]) | Growth Rate (Fibroblast; [4]) | Growth Rate (U2OS; [1]) | Growth Rate (U2OS; [4]) | Growth Rate (U2OS; [5]) | Growth Rate (U2OS; [6]) | Growth Rate (HEK-293T; [5]) | Growth Rate (HEK-293T; [7]) | Growth Rate (Fibroblast; [1]) | Growth Rate (Fibroblast; [2]) | Growth Rate (Fibroblast; [8]) | Growth Rate (Fibroblast; [9]) | Growth Rate (Fibroblast; [7]) | Growth Rate (U2OS; [9]) | Growth Rate (U2OS; [3]) | Growth Rate (U2OS; [10]) | Growth Rate (U2OS; [7]) | Growth Rate (HEK-293T; [6]) | further results |
| --- | --- | --- | --- | --- | --- | --- | --- | --- | --- | --- | --- | --- | --- | --- | --- | --- | --- | --- | --- | --- | --- |
| CN1C[C@@H](NS(=O)(=O)N(C)C)C[C@@H]2c3cccc4c3c(cn4C)C[C@H]21.Cl [MESULERGINE HYDROCHLORIDE] | 0.52 | 0.55 | 0.91 | -0.13 | 0.87 | 0.84 | 0.99 | 0.99 | – | – | – | – | – | – | – | – | – | – | – | – | Growth Rate (Fibroblast; [3]): 0.81 |
| C[C@]1(O)CC[C@H]2[C@@H]3CCC4=CC(=O)CCC4=C3C=C[C@@]21C [METRIBOLONE] | 0.16 | 0.59 | – | 0.85 | – | – | 0.54 | 0.86 | 1 | 0.98 | 0.89 | 0.22 | 0.66 | 0.98 | 0.98 | 0.56 | 0.92 | 0.92 | 0.76 | – | Growth Rate (U2OS; [2]): 0.07; Growth Rate (U2OS; [8]): 0.83 |
| CNC(=O)c1nn(C)c2c1C(C)(C)Cc1cnc(Nc3ccc(N4CCN(C)CC4)cc3)nc1-2 [MILCICLIB] | – | – | -0.34 | -0.21 | -0.33 | 0.23 | 0.23 | 0.25 | -0.12 | -0.02 | – | 1 | -0.13 | -0.1 | 0.34 | 0.17 | 0.29 | 0.38 | 0.21 | -0.01 | Growth Rate (HEK-293T; [8]): -0.57; Growth Rate (HEK-293T; [4]): -0.72; Growth Rate (HEK-293T; [9]): -0.22; Growth Rate (HEK-293T; [10]): -0.15; Growth Rate (Fibroblast; [3]): -0.07; Growth Rate (Fibroblast; [5]): 0.24; Growth Rate (Fibroblast; [10]): 0.23; Growth Rate (Fibroblast; [6]): 0.33; Growth Rate (U2OS; [8]): 0.35 |
| Nc1nc(CC(=O)Nc2ccc(CCNC[C@H](O)c3ccccc3)cc2)cs1 [MIRABEGRON] | 0.8 | 0.62 | – | 0.56 | 0.18 | – | 0.54 | – | – | – | 0.35 | 0.45 | 0.68 | 0.9 | – | 0.95 | – | – | – | – | – |
| CCS(=O)(=O)Nc1ccc(Oc2ccc(F)cc2F)c(-c2cn(C)c(=O)c3[nH]ccc23)c1 [MIVEBRESIB] | – | – | 0.78 | 0.52 | – | 0.85 | – | 0.95 | 0.75 | 0.4 | – | – | -0.16 | – | – | – | – | – | – | 0.28 | Growth Rate (HEK-293T; [10]): 0.41; Growth Rate (U2OS; [2]): -0.35 |
| OC[C@H]1O[C@@H](n2cnc3c(NC4CCCC4)ncnc32)[C@H](O)[C@@H]1O [N6-CYCLOPENTYLADENOSINE] | -0.12 | -0.14 | 0.6 | – | – | 0.74 | 0.53 | 1 | 0.75 | 0.73 | 0.37 | -0.09 | – | – | – | 0.69 | 0.94 | 0.93 | 0.71 | 0.66 | Growth Rate (HEK-293T; [8]): 0.92; Growth Rate (HEK-293T; [4]): 0.12; Growth Rate (HEK-293T; [9]): 0.81; Growth Rate (HEK-293T; [10]): 0.65; Growth Rate (Fibroblast; [6]): 0.92; Growth Rate (U2OS; [8]): 0.36 |
| CN(C(=O)/C=C/c1ccoc1)[C@@H]1CC[C@@]2(O)[C@H]3Cc4ccc(O)c5c4[C@@]2(CCN3CC2CC2)[C@H]1O5 [NALFURAFINE] | 0.87 | 0.49 | 0.91 | – | 0.56 | – | 0.68 | – | – | – | – | 0.55 | – | – | – | – | 1 | 0.88 | 0.77 | 0.91 | Growth Rate (U2OS; [2]): -0.09; Growth Rate (U2OS; [8]): 0.82 |
| Cl.O=C1CC[C@@]2(O)[C@H]3Cc4ccc(O)c5c4[C@@]2(CCN3CC2CC2)[C@H]1O5 [NALTREXONE HYDROCHLORIDE] | – | 0.83 | – | – | 0.86 | 0.81 | 0.67 | – | – | – | 0.67 | 0.63 | 0.38 | – | 0.6 | 0.39 | 0.91 | – | 0.83 | – | Growth Rate (HEK-293T; [4]): 0.84; Growth Rate (U2OS; [2]): -1; Growth Rate (U2OS; [8]): -0.02 |
| Cc1ccccc1-c1cc(N2CCN(C)CC2)ncc1N(C)C(=O)C(C)(C)c1cc(C(F)(F)F)cc(C(F)(F)F)c1 [NETUPITANT] | 0.83 | 0.7 | – | – | -0.52 | – | – | – | 0.72 | 0.5 | -0.23 | 0.68 | 0.24 | 0.63 | – | – | – | – | – | 0.86 | Growth Rate (HEK-293T; [9]): 0.84; Growth Rate (HEK-293T; [10]): 0.92; Growth Rate (Fibroblast; [3]): 0.31; Growth Rate (Fibroblast; [5]): 0.73; Growth Rate (Fibroblast; [10]): 0.71; Growth Rate (Fibroblast; [6]): 0.71 |
| COC(=O)Nc1nc2ccc(C(=O)c3cccs3)cc2[nH]1 [NOCODAZOLE] | – | – | -0.32 | -0.39 | – | 0.24 | 0.03 | -0.35 | -0.22 | -0.22 | – | – | -0.86 | -0.6 | -0.33 | 0.1 | -0.16 | -0.36 | -0.06 | -0.26 | Growth Rate (HEK-293T; [8]): -0.46; Growth Rate (HEK-293T; [4]): -0.49; Growth Rate (HEK-293T; [9]): -0.24; Growth Rate (HEK-293T; [10]): -0.34; Growth Rate (Fibroblast; [3]): -0.2; Growth Rate (Fibroblast; [5]): -0.54; Growth Rate (Fibroblast; [10]): -0.04; Growth Rate (Fibroblast; [6]): 0.08; Growth Rate (U2OS; [8]): 0.3 |
| CCCCCCCC/C=C\CCCCCCCC(N)=O [OLEAMIDE] | 0.61 | 0.35 | 0.99 | 0.82 | 0.24 | 1 | 0.76 | – | 0.89 | 0.96 | 0.63 | 0.02 | – | – | – | 0.75 | 0.79 | 0.89 | 0.98 | 1 | Growth Rate (HEK-293T; [8]): 0.79; Growth Rate (HEK-293T; [9]): 0.8; Growth Rate (HEK-293T; [10]): 0.94; Growth Rate (U2OS; [2]): 0.51; Growth Rate (U2OS; [8]): 0.78 |
| COc1ccc2c(c1OCc1ccccc1)C[C@@H](C(=O)O)N(C(=O)C(c1ccccc1)c1ccccc1)C2 [OLODANRIGAN] | – | – | – | – | – | – | – | – | 0.8 | 0.86 | 0.93 | 0.27 | 0.24 | – | 0.83 | – | 0.89 | 0.98 | – | – | Growth Rate (HEK-293T; [8]): 0.62; Growth Rate (HEK-293T; [4]): 0.64; Growth Rate (HEK-293T; [9]): 0.74; Growth Rate (U2OS; [2]): -1 |
| CCNC1(C(N)=O)CCN(c2ncnc3c2nc(-c2ccccc2Cl)n3-c2ccc(Cl)cc2)CC1 [OTENABANT] | – | – | 0.81 | 0.96 | -0.85 | 0.79 | – | 0.93 | – | – | -0.61 | 0.22 | – | -0.34 | -0.07 | – | 0.93 | 0.92 | – | – | Growth Rate (Fibroblast; [3]): 1; Growth Rate (Fibroblast; [5]): 0.38 |
| CC(C)Oc1ccc(-c2nc(-c3cccc4c3CC[C@@H]4NCCO)no2)cc1C#N [OZANIMOD] | – | – | -0.34 | 0.42 | – | -0.16 | 0.41 | 0.04 | -0.32 | -0.25 | – | – | 0.57 | 0.12 | -0.09 | 0.37 | -0.05 | 0.01 | 0.38 | -0.29 | Growth Rate (HEK-293T; [8]): -0.7; Growth Rate (HEK-293T; [4]): -0.68; Growth Rate (HEK-293T; [9]): -0.42; Growth Rate (HEK-293T; [10]): -0.35; Growth Rate (Fibroblast; [3]): -0.28; Growth Rate (Fibroblast; [5]): 0.03; Growth Rate (Fibroblast; [10]): -0.49; Growth Rate (Fibroblast; [6]): -0.43 |
